# In patent publication US4801606A (priority 1987, dated 1989):
# Read-outs that look alike come from different tables or passages of the source.
# How the values were obtained:
# [1] = test system: Candida albicans; assay: microbe, parasite or virus in culture
# [2] = as described in British patent specification Nos. 1,078,049 and 932,875; cited from earlier work
# [3] = test system: CV-1 cells
compound,measurement,setting,value
C=C1CC(OC)(C(O)C(=O)NC2OCOC3C2OC(CC(O)CCC/C=C/C=C/C=C/C(=O)NC(CCCNc2nc(C)cc(C)n2)C(=O)O)C(C)(C)C3OC)OC(C)C1C (stereo not shown) [Pyrimidine derivative (3)],MIC,[1],50 µg/mL
C=C1CC(OC)(C(O)C(=O)NC(OC)C2CC(O)C(C)(C)C(CC(COC)OC)O2)OC(C)C1C (stereo not shown) [Pederin],antimitotic activity,[2],antimitotic activity
"C=C1CC(OC)(C(O)C(=O)NC2OCOC3C2OC(CC(O)CCC/C=C/C=C/C=C/C(=O)NC(CCCNC(=N)N)C(=O)OC)C(C)(C)C3OC)OC(C)C1C (stereo not shown) [Methyl ester (2), Methyl ester of onnamide A]",MIC,[1],5 µg/mL
"C=C1CC(OC)(C(O)C(=O)NC2OCOC3C2OC(CC(O)CCC/C=C/C=C/C=C/C(=O)NC(CCCNC(=N)N)C(=O)O)C(C)(C)C3OC)OC(C)C1C (stereo not shown) [Onnamide A (1), onnamide A]",MIC,[1],50 µg/mL
same,VSV CYT,[3]; 0.2 ug/well,0 LS
same,VSV CYT,[3]; 2 ug/well,0 LS
same,VSV CYT,[3]; 20 ug/well,0 LS
